The source of these data is patent US9000012B2 (priority 2009, dated 2015).

Structures are written as SMILES. Where two headings read alike, the source gives them in different places.

This data set in a line: logP of the compounds of table 1. Type of data set: physicochemical.

What is called logP is a log measure of how a compound divides between an organic and an aqueous phase. For the molecule `C#CCCOC(=O)Nc1cccc(CON=C(C#N)c2ccccc2)n1` (single isomer, unassigned) [Example 3, but-3-yn-1-yl{6-[({[cyano(phenyl)methylene]amino}oxy)methyl]pyridin-2-yl}carbamate], for the setting “read-out: logP”, the lipophilicity (logP) came to 3.67.
For `CC(C)(C)OC(=O)Nc1cccc(CON=C(C#N)c2ccccc2)n1` [compound 1], the logP was 4.64.
Still for that read-out and setting: the figure for `COC(=O)C(=NOCc1cccc(N)n1)c1ccccc1` [compound 25] is 1.32; for `COC(=O)C(=NOCc1cccc(NC(=O)OC(C)(C)C)n1)c1ccccc1` [compound 26] it is 4.20; for `CCCCCOC(=O)Nc1cccc(CON=C(C(=O)OC)c2ccccc2)n1` [compound 27] it is 3.69.
`C#CCCOC(=O)Nc1cccc(CON=C(C(=O)OC)c2ccccc2)n1` [compound 28] had a logP of 3.48.
In the case of `COC(=O)C(=NOCc1cccc(NC(=O)C2COc3ccccc3O2)n1)c1ccccc1` (centres unmarked) [compound 37], the logP is given as 4.16.
`COC(=O)C(=NOCc1cccc(NC(=O)C(F)(F)Oc2ccccc2)n1)c1ccccc1` [compound 38] had a logP of 4.41.
As for `COC(=O)C(=NOCc1cccc(NC(=O)Cc2ccc(OC)cc2)n1)c1ccccc1` [compound 39], the logP is 3.69.
In the case of `COC(=O)C(=NOCc1cccc(NC(=O)c2cccc(F)c2)n1)c1ccccc1` [compound 40], the logP came out at 3.94.
Consider `COC(=O)C(=NOCc1cccc(NCCCc2ccccc2)n1)c1ccccc1` [compound 41], for which the logP stood at 2.60.
As for `C=CCCOC(=O)Nc1cccc(CON=C(C(=O)OC)c2ccccc2)n1` [compound 42], the logP came out at 3.94.
In turn, `COC(=O)C(=NOCc1cccc(NC(=O)c2cccs2)n1)c1ccccc1` [compound 43] displayed a logP of 3.67.
`COC(=O)C(=NOCc1cccc(NCCC2CCCCC2)n1)c1ccccc1` [compound 44] yielded a logP of 3.04.
In the case of `CC#CCOC(=O)Nc1cccc(CON=C(C(=O)OC)c2ccccc2)n1` [compound 45], the logP is 3.67.
Turning to `CCCCCCOC(=O)Nc1cccc(CON=C(C(=O)OC)c2ccccc2)n1` [compound 46], the logP worked out at 5.14.
Molecule `CNC(=O)C(=NOCc1cccc(N)n1)c1ccccc1` [compound 60] came in with a logP of 0.65.
Regarding `CNC(=O)C(=NOCc1cccc(N)n1)c1ccc(OCc2ccccc2)cc1` [compound 61], the logP is listed as 1.17.
In turn, `CNC(=O)C(=NOCc1cccc(NC(=O)OC(C)(C)C)n1)c1ccccc1` [compound 62] gave a logP of 2.88.
Turning to `CCCCCOC(=O)Nc1cccc(CON=C(C(=O)NC)c2ccc(OCc3ccccc3)cc2)n1` [compound 64], the logP amounted to 2.65.
For the molecule `CCCCCOC(=O)Nc1cccc(CON=C(C(=O)NC)c2ccc(Oc3ccccc3)cc2)n1` [compound 65], the logP was determined as 2.64.
`CNC(=O)C(=NOCc1cccc(NC(=O)C(F)(F)Oc2ccccc2)n1)c1ccccc1` [compound 76] came in with a logP of 3.35.
In the case of `CNC(=O)C(=NOCc1cccc(NC(=O)Cc2ccc(OC)cc2)n1)c1ccccc1` [compound 77], the logP came out at 2.66.
Molecule `CNC(=O)C(=NOCc1cccc(NC(=O)c2cccc(F)c2)n1)c1ccccc1` [compound 78] returned a logP of 2.84.
As to `CNC(=O)C(=NOCc1cccc(NCCCc2ccccc2)n1)c1ccccc1` [compound 79], the logP is 1.94.
`C=CCCOC(=O)Nc1cccc(CON=C(C(=O)NC)c2ccccc2)n1` [compound 80] showed a logP of 2.77.
The molecule `CNC(=O)C(=NOCc1cccc(NC(=O)c2cccs2)n1)c1ccccc1` [compound 81] returned a logP of 2.57.
Take `CNC(=O)C(=NOCc1cccc(NCCC2CCCCC2)n1)c1ccccc1` [compound 82]: the logP is listed as 2.23.
For the molecule `CC#CCOC(=O)Nc1cccc(CON=C(C(=O)NC)c2ccccc2)n1` [compound 83], the lipophilicity (logP) amounted to 2.59.
Molecule `CCCCCCOC(=O)Nc1cccc(CON=C(C(=O)NC)c2ccccc2)n1` [compound 84] came in with a logP of 3.48.
Molecule `CN(C)C(=O)C(=NOCc1cccc(N)n1)c1ccccc1` [compound 97] yielded a logP of 1.10.
In turn, `CN(C)C(=O)C(=NOCc1cccc(NC(=O)c2cccc(F)c2)n1)c1ccccc1` [compound 113] had a logP of 3.23.
For the molecule `CN(C)C(=O)C(=NOCc1cccc(NC(=O)c2ccc(Cl)cc2)n1)c1ccccc1` [compound 114], the logP is recorded as 3.57.
For the molecule `CN(C)C(=O)C(=NOCc1cccc(NC(=O)OCCOc2ccccc2)n1)c1ccccc1` [compound 115], the logP is 3.48.
In turn, `C=CCCOC(=O)Nc1cccc(CON=C(C(=O)N(C)C)c2ccccc2)n1` [compound 116] displayed a logP of 3.19.
For the molecule `COc1ccc(OC(=O)Nc2cccc(CON=C(C(=O)N(C)C)c3ccccc3)n2)cc1` [compound 117], the logP stood at 3.25.
On the same count and under the same terms, the figure for `C#CCCOC(=O)Nc1nc(CON=C(C(=O)N(C)C)c2ccccc2)cs1` [compound 120] is 2.84.
`C#CCC(C)OC(=O)Nc1nc(CON=C(C(=O)N(C)C)c2ccccc2)cs1` (centres unmarked) [compound 121] yielded a logP of 2.84.
For `C#CCCCCOC(=O)Nc1nc(CON=C(C(=O)N(C)C)c2ccccc2)cs1` [compound 122], the logP is on record as 3.06.
For the molecule `COc1ccc(CC(=O)Nc2nc(CON=C(C(=O)N(C)C)c3ccccc3)cs2)cc1` [compound 131], the logP came to 2.88.
For `CN(C)C(=O)C(=NOCc1csc(NC(=O)c2ccc(Cl)cc2)n1)c1ccccc1` [compound 132], the logP came to 3.41.
For the molecule `CN(C)C(=O)C(=NOCc1csc(NC(=O)OCCOc2ccccc2)n1)c1ccccc1` [compound 133], the logP is on record as 3.27.
Molecule `COc1ccc(C(=O)Nc2nc(CON=C(C(=O)N(C)C)c3ccccc3)cs2)cc1` [compound 134] yielded a logP of 2.84.
`C#CCC(C)OC(=O)Nc1cccc(CON=C(C(=O)N(C)CC)c2ccccc2)n1` (centres unmarked) [compound 135] had a logP of 3.31.
As for `CCN(C)C(=O)C(=NOCc1cccc(NC(=O)C(C)Oc2ccccc2)n1)c1ccccc1` (centres unmarked) [compound 136], the logP is 3.78.
The molecule `CCN(C)C(=O)C(=NOCc1cccc(NC(=O)Cc2ccc(OC)cc2)n1)c1ccccc1` [compound 137] had a logP of 3.23.
As for `C#CCCCCOC(=O)Nc1cccc(CON=C(C(=O)N(C)CC)c2ccccc2)n1` [compound 138], the lipophilicity (logP) came out at 3.35.
`CCN(C)C(=O)C(=NOCc1cccc(NC(=O)C2COc3ccccc3O2)n1)c1ccccc1` (centres unmarked) [compound 139] had a logP of 3.69.
As for `CCN(C)C(=O)C(=NOCc1cccc(NC(=O)c2ccc(Cl)cc2)n1)c1ccccc1` [compound 140], the logP came out at 3.85.
For `CCN(C)C(=O)C(=NOCc1cccc(NC(=O)OCCOc2ccccc2)n1)c1ccccc1` [compound 141], the lipophilicity (logP) is 3.76.
The molecule `CCN(C)C(=O)C(=NOCc1cccc(NC(=O)OC(C)(C)C)n1)c1ccccc1` [compound 142] returned a logP of 3.72.
Molecule `C#CCCOC(=O)Nc1cccc(CON=C(C(=O)N(C)CC)c2ccccc2)n1` [compound 143] had a logP of 3.04.
On the same count and under the same terms, the figure for `CCN(C)C(=O)C(=NOCc1csc(N)n1)c1ccccc1` [compound 144] is 1.34.
